The values that follow are results of earlier work, collected in patent US11712422B2, “Pharmaceutical compositions comprising activated carbon” (FERRING B.V., priority 2012, dated 2023).

Turning to `c1ccc2[nH]ccc2c1` [Indole], the “Log P” value was 2.14.

A word on the Log P: it is the decadic logarithm of the partition coefficient of the neutral form, usually between octanol and water.
